Holding throughout (type): cell-based
Assay [1] deals with p53 (wild-type p53 MCF7 cells). Nature of the assay: p53 and Δ133p53 mRNA level by RT-qPCR in MCF7 cells. Particulars: 5 μM, 48 hours, vs DMSO. On the procedure:
(§1) The compounds of the invention have been tested according to the following pharmacological test and the three compounds have been more particularly tested: (40), (1) and (45), all diluted in DMSO. Their effects were thus compared to cells treated with DMSO. A positive control was used, TG003, a benzothiazole compound known to alter splicing through the inhibition of Clk/Sty family activity (Sigma, ref: T5575).
(§2) Two breast cancer cell lines have been treated with 5 μM of drugs for 48 hours: wild-type p53 MCF7 cells and mutant p53 (R280K) MDA-MB-231-Luc-D3H2N provided by Caliper Life Science (parental Line source: American Type Culture collection). The MDA-MB-231-Luc-D3H2N cells were maintained in two different media during treatment: a DMEM supplemented with 10% foetal calf serum (FCS) and a FCS-free medium for 24 hours followed by 24 hours in a complete medium. The MC7 cells were maintained in a DMEM/FCS 10% medium.
(§3) Cells were harvested after 48 hours of treatment. Total RNAs (RNeasy Mini-Kit, Qiagen) and proteins (NuPage LDS 1×, Invitrogen) were extracted to analyse mRNA expression by nested RT-PCR or RT-qPCR and protein expression by Western Blot.
(§4) Analysis of p53 expression was assessed both at mRNA (full-length and truncated, Δ133p53 isoforms) and protein (full-length) levels by RT-qPCR and Western Blot, respectively.
(§5) The p53 isoform cDNA being too long to be specifically quantified by RT-qPCR, a semi-quantitative RT-PCR method was therefore used, requiring high quality total RNA 28S/18S ratio (>1.5). After reverse-transcription of 500 ng of total RNA using random primers, actin cDNA was amplified by PCR to confirm reverse-transcription efficiency. 0.5 μg of total RNA from each tumour sample was reverse-transcribed (AMV RT, 45 C, random primer) and cDNA quality confirmed by amplification of actin by PCR in 30 cycles. p53 isoform cDNA was amplified by 2 nested PCR of 30 cycles using primers specific of each isoforms as described in Bourdon et al. (Genes Dev., 2005, 19: 2122). Tumours were considered to express each p53 isoform after sequencing of the corresponding PCR fragment.
Background: Real-time PCR tracks product formation cycle by cycle.

Assay [2] concerns p53 (mutant p53 (R280K) MDA-MB-231-Luc-D3H2N cells). In words: p53 mRNA level by RT-qPCR in MDA-MB-231-Luc-D3H2N cells. The following applies: 5 μM, 48 hours; for p53 expression at mRNA levels (total isoforms, TA): decreased or not: mutant p53 MDA-MB-231-Luc-D3H2N cells in FCS-free medium; for p53 expression at mRNA levels (total isoforms, TA): mutant p53 MDA-MB-231-Luc-D3H2N cells in normal medium. The protocol:
as §1, §2, §3, §4, §5

Assay [3] has the same test system. In words: p53 protein expression by Western Blot (4 antibodies) in MDA-MB-231-Luc-D3H2N cells. The following applies: 5 μM, 48 hours. The protocol:
as §1, §2, §3
(§6) p53 protein expression was determined using a panel of 4 different antibodies, namely DO1, SAPLI, CMI and DO12 as described in Bourdon et al. (Genes Dev., 2005, 19: 2122), to avoid problem of detection due to post-translational modification.
The amount of total proteins in each extract was quantified using BCA kit (promega). 8% SDS-PAGE gels were used. Equal amount (30 μg) of proteins was loaded on each lane. Proteins were then transferred electrophoretically on nitrocellulose membrane. Membranes were blocked in TBS/0.1% Tween 20 containing 3% milk for one hour and then incubated overnight with the primary antibodies diluted in TBS/0.1% Tween 20 containing 3% milk. After several washes in TBS/Tween, membranes were incubated with anti-rabbit Ig antibodies linked to HRP. Membranes were developed with ECL according to the manufacturer's instructions.
(§7) Scanned autoradiographs were quantified using AIDA/2D densitometry software.
Background: Immunoblotting shows a protein as a band on a membrane.

In assay [4] the test system is p53-target genes Hdm2, Bcl-2, p21 (mutant p53 MDA-MB-231-Luc-D3H2N cells). In words: p53 transcriptional activity: p53-target gene expression by Western-blot in MDA-MB-231-Luc-D3H2N cells. Particulars: 5 μM, 48 hours. The protocol: as §1, §2, §3
(§8) Analysis of p53 transcriptional activity was assessed through analysis of p53-target gene expression by Western-blot. Four p53-target genes were studied: Hdm2, Bcl-2, p21 and Bax. Hdm2 is known to bind p53 and to negatively regulate p53 activity and stability. p21 is known to mediate p53 dependent cycle arrest. Bcl 2 is known to have an anti-proliferative effect and an apoptotic protective effect, while Bax is known to have a pro-apoptic effect. Bax was not detected in both MCF7 and MDA-MB-231-Luc-D3H2N cells, while p21 was not detected in MDA-MB-231-Luc-D3H2N cells maintained in FCS-free medium. The Western-blot was performed as above described using the antibodies described in Bourdon et al., Genes Dev., 2005, 19: 2122.

For assay [5], the system named is p53 isoforms produced by alternative splicing (wild-type p53 MCF7 cells). Nature of the assay: p53 isoforms (α, β, γ) expression at mRNA level in MCF7 cells. Particulars: 5 μM, 48 hours, RT-qPCR. The protocol:
as §2, §3
(§9) Expression of p53 isoforms produced by alternative splicing (α, β and γ) was analysed at mRNA levels by RT-qPCR using primers/probe specific of each C-terminal variants. The α-forms are the most abundant forms. In the low abundant forms, β-forms are more expressed than γ-forms.
as §5, with “A semi-quantitative” for “The p53 isoform cDNA being too long to be specifically quantified by RT-qPCR, a semi-quantitative”, “method” for “method was therefore used,”, “RT, 45C,” for “RT, 45 C,”, “described by” for “described in”

Assay [6] concerns p53 isoforms produced by alternative splicing (mutant p53 MDA-MB-231-Luc-D3H2N cells). In words: p53 isoforms (α, β, γ) expression at mRNA level in MDA-MB-231-Luc-D3H2N cells. Particulars: 5 μM, 48 hours. The protocol:
as §2, §3, §9
as §5, with “A semi-quantitative” for “The p53 isoform cDNA being too long to be specifically quantified by RT-qPCR, a semi-quantitative”, “method” for “method was therefore used,”, “RT, 45C,” for “RT, 45 C,”, “described by” for “described in”

Assay [7] has as its system p53 (wild-type p53 MCF7 cells). In words: p53 protein expression by Western Blot (4 antibodies) in MCF7 cells. The following applies: 5 μM, 48 hours, vs DMSO. The protocol:
as §1, §2
Cells were harvested after 48 hours of treatment. […]
as §6
The amount of total proteins in each extract was quantified using BCA kit (promega). […]
as §7

Assay [8] has as its system p53-target genes Hdm2, Bcl-2, p21 (wild-type p53 MCF7 cells). In words: p53 transcriptional activity: p53-target gene expression by Western-blot in MCF7 cells. The following applies: 5 μM, 48 hours. The protocol: as §1, §2, §3, §8
The mark [9] stands for this setting: mutant p53 MDA-MB-231-Luc-D3H2N cells in FCS-free medium.
[10] abbreviates: mutant p53 MDA-MB-231-Luc-D3H2N cells in normal medium.
Setting [11] is: mutant p53 MDA-MB-231-Luc-D3H2N cells in FCS-free medium, RT-qPCR.
Setting [12] is: mutant p53 MDA-MB-231-Luc-D3H2N cells in normal medium, RT-qPCR.

Consider `CC(C)CCNC(=O)c1cccc(Nc2cccc(/C=C/c3ccncc3)c2)c1` [Compound 1, (E)-N-(3-methylbutyl)-3-[3-(2-pyridin-4-ylvinyl)phenylamino]benzamide], for which, in assay [1], the “total p53 expression (total isoforms, TA) at mRNA levels” value (“total p53 expression” below) is given as “did not change” and the “Δ133p53 mRNA level” value is on record as “increased”. For the same compound, in assay [2], the “p53 expression at mRNA levels (total isoforms, TA): decreased or not” value is given as “decreased” and the “p53 expression at mRNA levels (total isoforms, TA)” value was “significant decrease”. Further, the “p53 protein levels (full-length)” value in assay [3] (setting [9]) is recorded as “did not change”. The “p53 protein levels (full-length)” value in assay [3] (setting [10]) is reported as “did not change”. For the same compound, the “expression of Hdm2 (p53-target gene)” value in assay [4] (setting [9]) is given as “slight decrease”. Further, in assay [4] (setting [10]), the p53-target genes expression entry is on record as “did not affect”. Further, in assay [5], the “expression of p53 β-forms (mRNA)” value was “tend to increase”, the “expression of p53 γ-forms (mRNA)” value is “tend to increase” and the “p53 α-form expression at mRNA levels” value is listed as “did not change”. Moreover, in assay [6] (setting [11]), the “expression of p53 γ-forms (mRNA)” value is on record as “no significant increase” and the “p53 α-form expression at mRNA levels” value is given as “did not change”. In addition, the “p53 γ-forms expression by nested RT-PCR” value in assay [6] (setting [9]) is “restoration”. In assay [6] (setting [12]), the “expression of p53 β-forms (mRNA)” value is “tend to increase”, the “expression of p53 γ-forms (mRNA)” value was “tend to increase” and the “p53 α-form expression at mRNA levels” value is given as “did not change”. For the same compound, the “p53 γ-forms expression by nested RT-PCR” value in assay [6] (setting [10]) is given as “restoration”.
For the compound `CCN(CC)CCCNC(=O)c1cccc(Nc2cccc(/C=C/c3ccc(OC)cc3)c2)c1` [Compound 40], the “total p53 expression” value in assay [1] is “did not change”. Besides, the “Δ133p53 mRNA level” value in assay [1] is listed as “increased”. In addition, the entries for the “p53 protein levels (full-length)” value in assay [7], in assay [3] (setting [9]) and in assay [3] (setting [10]) were “decreased”, “did not change” and “did not change”, respectively. For the same compound, in assay [8], the “expression of Bcl-2 (p53-target gene)” value is given as “decreased expression”. The “expression of Hdm2 (p53-target gene)” value in assay [8] is given as “decreased expression”. Further, in assay [2], the “p53 expression at mRNA levels (total isoforms, TA)” value is listed as “decreased”. The p53-target genes expression entry in assay [4] (setting [9]) and in assay [4] (setting [10]) was “did not affect” throughout. For the same compound, the “expression of p53 β-forms (mRNA)” value in assay [5] and in assay [6] (setting [12]) was “tend to increase” in each case. For the same compound, the “expression of p53 γ-forms (mRNA)” value in assay [5] and in assay [6] (setting [12]) was “tend to increase” in each case. Further, the “p53 α-form expression at mRNA levels” value in assay [5], in assay [6] (setting [11]) and in assay [6] (setting [12]) was “did not change” throughout.
Consider `CCN(CC)CCNC(=O)c1ccccc1Nc1ccc(OC(F)(F)F)cc1` [Compound 45, N-(2-diethylamino-ethyl)-2-(4-trifluoromethoxy-phenylamino)-benzamide], for which the “total p53 expression” value in assay [1] is reported as “did not change”. The “p53 protein levels (full-length)” value in assay [7] is on record as “decreased”. Further, in assay [8], the “expression of Bcl-2 (p53-target gene)” value is on record as “decreased expression” and the “expression of Hdm2 (p53-target gene)” value is reported as “decreased expression”. In assay [2], the “p53 expression at mRNA levels (total isoforms, TA): decreased or not” value is given as “decreased” and the “p53 expression at mRNA levels (total isoforms, TA)” value is reported as “decreased”. The “p53 protein levels (full-length)” value in assay [3] (setting [9]) is “did not change”. Further, in assay [3] (setting [10]), the “p53 protein levels (full-length)” value is given as “did not change”. For the same compound, the “expression of Bcl-2 (p53-target gene)” value in assay [4] (setting [9]) is on record as “slight decrease”. Besides, the p53-target genes expression entry in assay [4] (setting [10]) is given as “slight decrease”. For the same compound, in assay [5], the “expression of p53 β-forms (mRNA)” value is recorded as “tend to increase”, the “expression of p53 γ-forms (mRNA)” value is listed as “tend to increase” and the “p53 α-form expression at mRNA levels” value was “did not change”. Moreover, in assay [6] (setting [11]), the “expression of p53 β-forms (mRNA)” value is on record as “tend to increase”, the “expression of p53 γ-forms (mRNA)” value was “tend to increase” and the “p53 α-form expression at mRNA levels” value is given as “did not change”. Further, in assay [6] (setting [12]), the “expression of p53 β-forms (mRNA)” value is given as “tend to increase”, the “expression of p53 γ-forms (mRNA)” value is “tend to increase”, the “p53 α-form expression at mRNA levels” value is given as “did not change” and the “significant increase of p53 β-forms (mRNA)” value is 3 fold. Besides, the “significant increase of p53 γ-forms (mRNA)” value in assay [6] (setting [12]) was found to be 2 fold.

For the origin of these results see patent US10538485B2, “Compounds for use as therapeutic agents affecting P53 expression and/or activity” (ABIVAX, priority 2011, dated 2020).
